Test results: patent US20240299328A1, “COMPOSITIONS COMPRISING 15-HEPE AND METHODS OF TREATING AND/OR PREVENTING HEMATOLOGIC DISORDERS AND RELATED DISEASES” (Afimmune Limited, priority 2023, published 2024)
Read-outs that look alike come from different tables or passages of the source.

Tests used:
[1] = test system: BDL-operated mice; test: BDL study: serum biochemistry (ALT, total bilirubin); type: in vivo
Method: Sample Collection: For serum samples, non-fasting blood was collected in serum separate tubes without anticoagulant through direct cardiac puncture and centrifuged at 3,500×g for 4 minutes at 4° C. The superatant was collected and stored at −80° C. for biochemistry (30 μL) and shipping (all the remaining). For liver samples, left lateral lobe was collected and cut into 6 pieces. Two pieces of left lateral lobe were fixed in Bouin's solution and then embedded in paraffin. Samples were stored at room temperature for histological analysis. The other 2 pieces of left lateral lobe were embedded in O.C.T. compound and quick frozen in liquid nitrogen. Samples were stored at −80° C. The remaining pieces of left lateral lobe was snap frozen in liquid nitrogen and stored at −80° C. for gene expression analyses. Right medial lobe, left medial lobe, right lobe and caudate lobe were snap frozen in liquid nitrogen and stored at −80° C. for shipping.

[2] = test system: Sprague Dawley rats; test: 26 week rat toxicity study: tolerability, clinical signs; type: in vivo; conditions: 6 g/kg/day oral gavage, replaced with 3 g/kg/day
Method: The test and control items were administered to the appropriate animals by once daily oral gavage 7 days a week for a minimum of 26 weeks. The volume for each animal was based on the most recent body weight measurements. The doses were given using a syringe with attached gavage cannula. The first day of dosing was designated as Day 1. The dosing formulations were removed from the refrigerator and stirred for at least 30 minutes before dosing. The dosing formulations were also stirred continuously during dosing.
Due to the onset of clinical signs, including hunched posture, erect fur and abnormal gait and body weight loss, animals 3206M, 3515F and 3703F were given a dosing holiday from Day 45 and remaining Group 3 animals were given a dosing holiday from Day 48. Animals will start dosing at the lower dose level (3000 mg/kg/day) from Day 64. The following tables illustrate the treatments (Table 22) and animal groupings (Table 23) that were used in the study.
Mortality/moribundity checks were made daily. […] Animals were not removed from the cage during observation, unless necessary for identification or confirmation of possible findings.
Post-dose observations were made regularly throughout the day. […] The onset, intensity, and duration of these signs were recorded; particular attention was paid to the animals during and for the first hour after dosing.

[3] = test system: UUO mice; type: in vivo
Method: UUO Surgery: On day 0 of the study, UUO surgery was performed on mice under pentobarbital sodium anesthesia. The mouse's hair was first shaved and then abdomen cut open to exteriorize the mouse's left ureter. The ureter was ligated 4-0 nylon sutures at two points. The mouse's peritoneum and skin were then closed with sutures, and the mouse transferred to a clean cage until recovered from the anesthesia. Sham operated mice had their left ureter exposed but not ligated. […]
Animals: Seven-week-old female C57BL/6 mice (i.e., animals) were obtained and were housed and fed with a normal diet under controlled conditions. The animals were maintained in a specific-pathogen free (SPF) facility under controlled conditions of temperature (e.g., 23±2° C.), humidity (e.g., 45±10%), lighting (e.g., 12-hour artificial light and dark cycles; light from 8:00 to 20:00) and air exchange. A high pressure was maintained in the experimental room to prevent contamination of the facility. The animals were housed in TPX cages with a maximum of 4 mice per cage. Sterilized Paper-Clean was used for bedding and replaced once a week. Sterilized solid normal diet was provided ad libitum, being placed in a metal lid on the top of the cage. Pure water was also provided ad libitum from a water bottle equipped with a rubber stopper and a sipper tube. Water bottles were replaced once a week, cleaned, and sterilized in an autoclave and reused. Mice were identified by ear punch and each cage was labeled with a specific identification code.
Animal Monitoring and Sacrifice: The viability, clinical signs and behavior for the mice were monitored daily. Individual body weight was measured daily before treatment during the treatment period. […] The animals were sacrificed by exsanguination through direct cardiac puncture under isoflurane anesthesia at Day 14.

[4] = test system: rats; conditions: 28-day dose ranging study; cited from earlier work
[5] = 50 mg/kg PO QD Day 0-13, Day 14, mean ± SD
[6] = 250 mg/kg PO QD Day 0-13, Day 14, mean ± SD
[7] = 500 mg/kg PO QD Day 0-13, Day 14, mean ± SD
[8] = DS102 50, 250, 500 mg/kg groups vs Vehicle group

CC/C=C\C[C@H](O)/C=C/C=C\C/C=C\C/C=C\CCCC(=O)OCC [DS102, 15(S)-hydroxy-(5Z,8Z,11Z,13E,17Z)-eicosapentaenoic acid ethyl ester]
Serum ALT [1, 5]: 402 ± 112 U/L
Serum Total Bilirubin [1, 5]: 26.8 ± 6.9 mg/dL
Serum ALT [1, 6]: 351 ± 155 U/L
Serum Total Bilirubin [1, 6]: 23.5 ± 9.8 mg/dL
Serum ALT [1, 7]: 383 ± 147 U/L
Serum Total Bilirubin [1, 7]: 26.2 ± 6.1 mg/dL
serum ALT level [1, 8]: no significant differences
serum total bilirubin level [1, 8]: no significant differences
tolerability of the highest dose [2]: not well tolerated
Body Weight [3, 5]: 18.8 ± 0.6 g
Left Kidney Weight [3, 5]: 469 ± 60 mg
Right Kidney Weight [3, 5]: 133 ± 10 mg
Body Weight [3, 7]: 18.7 ± 0.5 g
Left Kidney Weight [3, 7]: 487 ± 108 mg
Right Kidney Weight [3, 7]: 136 ± 6 mg
oral maximum tolerated dose (MTD) [4]: 6 g/kg/day
